# Biological target: T1, human PAH with the R408W mutation (Homo sapiens, UniProt P00439, R408W)
# T1 construct: expressed in transfected cells
# T1 sequence (P00439 1-452 R408W): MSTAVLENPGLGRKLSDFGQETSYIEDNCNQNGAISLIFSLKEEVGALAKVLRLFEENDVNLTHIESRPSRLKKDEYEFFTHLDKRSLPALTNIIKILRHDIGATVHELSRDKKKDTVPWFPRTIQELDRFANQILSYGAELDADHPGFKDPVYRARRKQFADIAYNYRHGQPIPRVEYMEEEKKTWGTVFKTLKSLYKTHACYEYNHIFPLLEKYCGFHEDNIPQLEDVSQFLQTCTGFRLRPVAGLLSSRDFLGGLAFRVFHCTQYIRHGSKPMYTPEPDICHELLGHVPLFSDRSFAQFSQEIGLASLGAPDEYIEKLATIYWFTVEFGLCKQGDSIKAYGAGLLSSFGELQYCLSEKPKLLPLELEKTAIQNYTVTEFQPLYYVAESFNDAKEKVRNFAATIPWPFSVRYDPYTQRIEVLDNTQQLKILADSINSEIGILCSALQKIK
# Assay: Cell Based Phenylalanine Flux Assay;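 further: after compound treatment, cells received sepiapterin plus isotope-labelled Phenylalanine for 4 hours, then labelled Tyrosine in the medium was quantified, 10-point 2-fold dilution series run in duplicate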
# Details: A375 cells expressing human PAH R408W; 24 hrs compound incubation; 13C-Tyrosine by LC-MS; average where tested multiple times; read-out: AC50
row,Structure (SMILES),AC50 [nM]
1,"Fc1cccnc1-c1nnc(N2CCc3[nH]cnc3[C@H]2c2cc3ccccn3n2)o1 [Example 2338, (S)-2-(3-fluoropyridin-2-yl)-5-(4-(pyrazolo[1,5-a]pyridin-2-yl)-1,4,6,7-tetrahydro-5H-imidazo[4,5-c]pyridin-5-yl)-1,3,4-oxadiazole]",500 to 1000
2,"Fc1cccnc1-c1nnc(N2CCc3[nH]cnc3[C@@H]2c2cc3ccccn3n2)o1 [Example 2339, (R)-2-(3-fluoropyridin-2-yl)-5-(4-(pyrazolo[1,5-a]pyridin-2-yl)-1,4,6,7-tetrahydro-5H-imidazo[4,5-c]pyridin-5-yl)-1,3,4-oxadiazole]",> 5000
3,"Cc1cccn2nc([C@H]3c4nc[nH]c4CCN3c3nnc(-c4ncccc4F)o3)cc12 [Example 2340, (R)-2-(3-fluoropyridin-2-yl)-5-(4-(4-methylpyrazolo[1,5-a]pyridin-2-yl)-1,4,6,7-tetrahydro-5H-imidazo[4,5-c]pyridin-5-yl)-1,3,4-oxadiazole]",> 5000
4,"Cc1cccn2nc([C@@H]3c4nc[nH]c4CCN3c3nnc(-c4ncccc4F)o3)cc12 [Example 2341, (S)-2-(3-fluoropyridin-2-yl)-5-(4-(4-methylpyrazolo[1,5-a]pyridin-2-yl)-1,4,6,7-tetrahydro-5H-imidazo[4,5-c]pyridin-5-yl)-1,3,4-oxadiazole]",500 to 1000
5,"Cc1cccc(-c2nnc(N3CCc4[nH]cnc4[C@H]3c3cc4c(C)cccn4n3)o2)n1 [Example 2345, (S)-2-(4-(4-methylpyrazolo[1,5-a]pyridin-2-yl)-1,4,6,7-tetrahydro-5H-imidazo[4,5-c]pyridin-5-yl)-5-(6-methylpyridin-2-yl)-1,3,4-oxadiazole]",500 to 1000
6,"Cc1cccc(-c2nnc(N3CCc4[nH]cnc4[C@H]3c3cc4c(C(F)F)cccn4n3)o2)n1 [Example 2347, (S)-2-(4-(4-(difluoromethyl)pyrazolo[1,5-a]pyridin-2-yl)-1,4,6,7-tetrahydro-5H-imidazo[4,5-c]pyridin-5-yl)-5-(6-methylpyridin-2-yl)-1,3,4-oxadiazole]",500 to 1000
7,"FC(F)(F)Oc1cccn2nc([C@@H]3c4nc[nH]c4CCN3c3ccc(C(F)(F)F)cn3)cc12 [Example 2348, (S)-4-(4-(trifluoromethoxy)pyrazolo[1,5-a]pyridin-2-yl)-5-(5-(trifluoromethyl)pyridin-2-yl)-4,5,6,7-tetrahydro-1H-imidazo[4,5-c]pyridine]",500 to 1000
8,"Fc1ncccc1-c1nnc(N2CCc3[nH]cnc3[C@H]2c2cc3c(Cl)cccn3n2)o1 [Example 2350, (S)-2-(4-(4-chloropyrazolo[1,5-a]pyridin-2-yl)-1,4,6,7-tetrahydro-5H-imidazo[4,5-c]pyridin-5-yl)-5-(2-fluoropyridin-3-yl)-1,3,4-oxadiazole]",500 to 1000
9,"CC(C)c1cccn2nc([C@H]3c4nc[nH]c4CCN3c3nnc(-c4ncccc4F)o3)cc12 [Example 2354, (R)-2-(3-fluoropyridin-2-yl)-5-(4-(4-isopropylpyrazolo[1,5-a]pyridin-2-yl)-1,4,6,7-tetrahydro-5H-imidazo[4,5-c]pyridin-5-yl)-1,3,4-oxadiazole]",> 5000
10,"CC(C)c1cccn2nc([C@@H]3c4nc[nH]c4CCN3c3nnc(-c4ncccc4F)o3)cc12 [Example 2355, (S)-2-(3-fluoropyridin-2-yl)-5-(4-(4-isopropylpyrazolo[1,5-a]pyridin-2-yl)-1,4,6,7-tetrahydro-5H-imidazo[4,5-c]pyridin-5-yl)-1,3,4-oxadiazole]",500 to 1000
11,"Cc1cccc(-c2nnc(N3CCc4[nH]cnc4[C@H]3c3cc4c(C(F)(F)F)cccn4n3)o2)n1 [Example 2357, (S)-2-(6-methylpyridin-2-yl)-5-(4-(4-(trifluoromethyl)pyrazolo[1,5-a]pyridin-2-yl)-1,4,6,7-tetrahydro-5H-imidazo[4,5-c]pyridin-5-yl)-1,3,4-oxadiazole]",500 to 1000
12,"Cc1cccc(-c2nnc(N3CCc4[nH]cnc4[C@@H]3c3cc4c(C5CC5)cccn4n3)o2)n1 [Example 2358, (R)-2-(4-(4-cyclopropylpyrazolo[1,5-a]pyridin-2-yl)-1,4,6,7-tetrahydro-5H-imidazo[4,5-c]pyridin-5-yl)-5-(6-methylpyridin-2-yl)-1,3,4-oxadiazole]",> 5000
13,"Cc1cccc(-c2nnc(N3CCc4[nH]cnc4[C@H]3c3cc4c(C5CC5)cccn4n3)o2)n1 [Example 2359, (S)-2-(4-(4-cyclopropylpyrazolo[1,5-a]pyridin-2-yl)-1,4,6,7-tetrahydro-5H-imidazo[4,5-c]pyridin-5-yl)-5-(6-methylpyridin-2-yl)-1,3,4-oxadiazole]",500 to 1000
14,"Cc1cccn2nc([C@H]3c4nc[nH]c4CCN3c3nnc(-c4cccc(F)n4)o3)cc12 [Example 2360, (R)-2-(6-fluoropyridin-2-yl)-5-(4-(4-methylpyrazolo[1,5-a]pyridin-2-yl)-1,4,6,7-tetrahydro-5H-imidazo[4,5-c]pyridin-5-yl)-1,3,4-oxadiazole]",> 5000
15,"Fc1cccc(-c2nnc(N3CCc4[nH]cnc4[C@H]3c3cc4c(C(F)(F)F)cccn4n3)o2)n1 [Example 2363, (S)-2-(6-fluoropyridin-2-yl)-5-(4-(4-(trifluoromethyl)pyrazolo[1,5-a]pyridin-2-yl)-1,4,6,7-tetrahydro-5H-imidazo[4,5-c]pyridin-5-yl)-1,3,4-oxadiazole]",500 to 1000
16,"O=C(c1nnc(-c2ccc(F)cn2)o1)N1CCc2[nH]cnc2[C@@H]1c1cc2ccccn2n1 [Example 2364, (R)-(5-(5-fluoropyridin-2-yl)-1,3,4-oxadiazol-2-yl)(4-(pyrazolo[1,5-a]pyridin-2-yl)-6,7-dihydro-1H-imidazo[4,5-c]pyridin-5(4H)-yl)methanone]",> 5000
17,"O=C(c1cnn(CC(F)(F)F)c1C(F)F)N1CCc2[nH]cnc2[C@H]1c1cc2ccccn2n1 [Example 2368, (S)-(5-(difluoromethyl)-1-(2,2,2-trifluoroethyl)-1H-pyrazol-4-yl)(4-(pyrazolo[1,5-a]pyridin-2-yl)-6,7-dihydro-1H-imidazo[4,5-c]pyridin-5(4H)-yl)methanone]",1000 to 5000
18,"O=C(c1cnn(CC(F)(F)F)c1C(F)F)N1CCc2[nH]cnc2[C@@H]1c1cc2ccccn2n1 [Example 2369, (R)-(5-(difluoromethyl)-1-(2,2,2-trifluoroethyl)-1H-pyrazol-4-yl)(4-(pyrazolo[1,5-a]pyridin-2-yl)-6,7-dihydro-1H-imidazo[4,5-c]pyridin-5(4H)-yl)methanone]",> 5000
19,"Nc1cc(C(=O)N2CCc3[nH]cnc3[C@H]2c2cc3ccccn3n2)n(C(F)F)n1 [Example 2370, (S)-(3-amino-1-(difluoromethyl)-1H-pyrazol-5-yl)(4-(pyrazolo[1,5-a]pyridin-2-yl)-6,7-dihydro-1H-imidazo[4,5-c]pyridin-5(4H)-yl)methanone]",1000 to 5000
20,"Cn1nc(C(F)(F)F)nc1C(=O)N1CCc2[nH]cnc2[C@H]1c1cc2ccccn2n1 [Example 2372, (S)-(1-methyl-3-(trifluoromethyl)-1H-1,2,4-triazol-5-yl)(4-(pyrazolo[1,5-a]pyridin-2-yl)-6,7-dihydro-1H-imidazo[4,5-c]pyridin-5(4H)-yl)methanone]",1000 to 5000
21,"CC(C)(O)c1nnc(C(=O)N2CCc3[nH]cnc3[C@H]2c2cc3c(Cl)cccn3n2)o1 [Example 2378, (S)-(4-(4-chloropyrazolo[1,5-a]pyridin-2-yl)-6,7-dihydro-1H-imidazo[4,5-c]pyridin-5(4H)-yl)(5-(2-hydroxypropan-2-yl)-1,3,4-oxadiazol-2-yl)methanone]",1000 to 5000
22,"Cc1ccc2cc([C@@H]3c4nc[nH]c4CCN3C(=O)c3nnc(-c4cnn(C)c4)o3)nn2c1 [Example 2380, (S)-(5-(1-methyl-1H-pyrazol-4-yl)-1,3,4-oxadiazol-2-yl)(4-(6-methylpyrazolo[1,5-a]pyridin-2-yl)-6,7-dihydro-1H-imidazo[4,5-c]pyridin-5(4H)-yl)methanone]",1000 to 5000
23,"CC(C)(O)c1ncc(C(=O)N2CCc3[nH]cnc3[C@H]2c2cc3c(F)cccn3n2)o1 [Example 2382, (S)-(4-(4-fluoropyrazolo[1,5-a]pyridin-2-yl)-6,7-dihydro-1H-imidazo[4,5-c]pyridin-5(4H)-yl)(2-(2-hydroxypropan-2-yl)oxazol-5-yl)methanone]",1000 to 5000
24,"Cc1ccn2nc([C@@H]3c4nc[nH]c4CCN3C(=O)c3nnc(-c4ccccn4)o3)cc2c1 [Example 2384, (S)-(4-(5-methylpyrazolo[1,5-a]pyridin-2-yl)-6,7-dihydro-1H-imidazo[4,5-c]pyridin-5(4H)-yl)(5-(pyridin-2-yl)-1,3,4-oxadiazol-2-yl)methanone]",1000 to 5000
25,"Cc1ccn2nc([C@H]3c4nc[nH]c4CCN3C(=O)c3nnc(-c4ccccn4)o3)cc2c1 [Example 2385, (R)-(4-(5-methylpyrazolo[1,5-a]pyridin-2-yl)-6,7-dihydro-1H-imidazo[4,5-c]pyridin-5(4H)-yl)(5-(pyridin-2-yl)-1,3,4-oxadiazol-2-yl)methanone]",> 5000
26,"O=C(c1ccnn1C1CC1)N1CCc2[nH]cnc2[C@H]1c1cc2ccccn2n1 [Example 2386, (S)-(1-cyclopropyl-1H-pyrazol-5-yl)(4-(pyrazolo[1,5-a]pyridin-2-yl)-6,7-dihydro-1H-imidazo[4,5-c]pyridin-5(4H)-yl)methanone]",1000 to 5000
27,"O=C(c1ccnn1-c1ccccn1)N1CCc2[nH]cnc2[C@H]1c1cc2c(F)cccn2n1 [Example 2388, (S)-(4-(4-fluoropyrazolo[1,5-a]pyridin-2-yl)-6,7-dihydro-1H-imidazo[4,5-c]pyridin-5(4H)-yl)(1-(pyridin-2-yl)-1H-pyrazol-5-yl)methanone]",1000 to 5000

# From patent US20230365592A1 (Agios Pharmaceuticals, Inc., priority 2022, published 2023)
